Read-outs that look alike come from different tables or passages of the source.
System: Hi-Q organoids
Assay: Calcium imaging in sections of Hi-Q brain organoids (Oregon Green BAPTA 1)
Assay type: cell-based, human
Conditions: for calcium signals on addition of the substance: more evident in older than in younger organoids, FIG. 4C-D

Compound	response of organoids to added transmitter (calcium imaging) (Day 30 organoids, FIG. 4C)	response of organoids to added transmitter (calcium imaging) (Day 40 organoids, FIG. 4D)	calcium signals on addition of the substance	further results
NCCCC(=O)O [GABA]	respond	respond	spike in calcium signals	
NS(=O)(=O)c1cccc2c1c([N+](=O)[O-])cc1nc(O)c(O)nc12 [NBQX]				effect on calcium signals evoked by GABA or glutamate (involvement of AMPA receptors) (blocker added): blocked
NC1=N[C@H](O)[C@H]2[C@H]3O[C@]4(O)O[C@@H]([C@@H](O)[C@@]2(N1)[C@@H]4O)[C@]3(O)CO [TTX, tetrodotoxin]				effect on the response to GABA: not altered; inhibition of sodium channels in the brain organoids, analyzed by calcium imaging: inhibits sodium channels
NiCl2				effect on the response to GABA (blocker added, calcium signal evoked by GABA): blocked
glutamate	no response	respond	spike in calcium signals	
